Assay results from patent US7452965B2, “Colon tumor specific binding peptides” (University of Utah Research Foundation, priority 2002, dated 2008).
“Also recorded” adds a separate entry of the source. Ends that are not written are not given here.

Experiments:
HT29 cells = assay: RPM-FITC immunofluorescence staining of cultured cells (confocal microscopy); format: cell-based; details: for localisation of peptide in HT29 cells: 100 uM, 1 hour
Description: (§1) Cell Culture: HT29, HCT116, or a 50% mixture of HT29 and HCT116 cells were plated on glass slides (Nalge). Wells were incubated with 10 μM of RPM-FITC peptide for 45 minutes at 4° C. or 37° C. After washing with wash buffer, cells were blocked with 1% NGS, 0.1% BSA, 0.1% Triton-X100 in PBS. Following the blocking step, wells were incubated with the polyclonal p53 antibody, D10, (Santa Cruz) for 1 hour at room temperature. The wells were washed and incubated with the secondary antibodies GαFITC Alexa 488 (Molecular Probes) and GαMouse Alexa 647 (Molecular Probes) and the nuclear stain Topro-3 (Molecular Probes). Wells were washed and mounted using Pro-Long Anti-fade (Molecular Probes). Slides were analyzed by confocal microscopy.
The peptide then was tested to determine whether it was able to differentiate HT29 from HCT116 cells. In order to distinguish HT29 from HCT116 cells in our immunohistochemical assays, staining was carried out in the presence of the transcription factor, p53. Staining for the protein p53 is a way to visually discriminate HT29 from HCT116 cells, since p53 is mutated and accumulates in HT29 cells but is wild type in HCT116 cells and thus, is rapidly degraded. […] To test the ability of the fluorescein conjugated peptide (RPM-FITC) to preferentially bind HT29 cells, HT29 and HCT116 cells were stained with RPM-FITC. […] When a mixture of HT29 and HCT116 cells was incubated with RPM-FITC and concurrently analyzed for the presence of p53, cells with the highest level of p53 protein also bound RPM-FITC (FIG. 5A).
The ability of a molecule to translocate across the cell membrane is important for drug delivery. HT29 cells were incubated for 1 hour at either 4° C. or 37° C. in the presence of 100 uM RPM-FITC. After incubation, cells were washed, fixed with 2% paraformaldehyde, then incubated with an anti-FITC secondary antibody to amplify the fluorescence signal.

HCT116 cells = assay: as above; format: cell-based; details: 1 hour at 4° C.
Description: as §1, with “Wells were incubated with 10 μM of RPM-FITC peptide for 45 minutes at 4° C. or 37° C.” left out
The peptide then was tested to determine whether it was able to differentiate HT29 from HCT116 cells. In order to distinguish HT29 from HCT116 cells in our immunohistochemical assays, staining was carried out in the presence of the transcription factor, p53. Staining for the protein p53 is a way to visually discriminate HT29 from HCT116 cells, since p53 is mutated and accumulates in HT29 cells but is wild type in HCT116 cells and thus, is rapidly degraded. […] When a mixture of HT29 and HCT116 cells was incubated with RPM-FITC and concurrently analyzed for the presence of p53, cells with the highest level of p53 protein also bound RPM-FITC (FIG. 5A).

human colon tumor = assay: Peptide-binding assay on frozen tissue sections; details: frozen sections, 4° C.
Description: (§2) A biopsy of sporadic colon adenocarcinoma, liver and lung sarcoma, and grossly uninvolved colon, liver, lung, and stomach were frozen in optimum cutting temperature (OCT) and […] cryostat sections placed on glass slides. Sections were stained with H&E and untreated adjacent sections were incubated with RPM-FITC. After incubating with RPM-FITC in binding buffer for 45 minutes at 4° C., slides were washed and mounted using Pro-Long Anti-Fade (Molecular Probes). Nuclei were visualized by a quick incubation with Topro-3 (Molecular Probes) present in the last wash. Samples were analyzed by confocal microscopy.

[1] = test system: grossly uninvolved normal colon; assay: Peptide-binding assay on frozen tissue sections; parameters: species or system human
Description: as §2

[2] = test system: lung and liver cancer, grossly uninvolved lung, liver, and stomach; assay: Peptide-binding assay on frozen tissue sections; parameters: species or system human; details: cryostat sections
Description: as §2
To determine whether RPM-FITC was able to bind cancers originated from tissues other than colon or to other normal tissues, a peptide-binding assay was performed on cryostat sections of lung and liver cancer, and grossly uninvolved lung, liver, and stomach. As a positive control, a section of colon tumor was stained in parallel with the other sections. […] Binding to HT29 Cells is Dependent on the Amino Acids, RPMC-C (SEQ ID NO: 136).

In the case of “RPM-FITC: fluorescein conjugated peptide (RPM-FITC) (CPIEDRPMC; cysteine pairing not given here; also: fluorescein (FITC) conjugated, position not given here)”, the “localisation of peptide in HT29 cells” value (HT29 cells; 4° C.) is reported as “confined to the cell surface”, the “localisation of peptide in HT29 cells” value (HT29 cells; 37° C.) is reported as “diffuse staining throughout the cells” and the “RPM-FITC staining of HT29 cells” value (HT29 cells; 1 hour at 4° C.) is reported as “showed fluorescence”. For the same substance, the “RPM-FITC staining of HCT116 cells” value (HCT116 cells) was “little or no fluorescence”, the “binding/staining of human colon tumor sections” value (human colon tumor) was “preferential binding; also recorded: bright staining” and the “binding/staining of human colon tumor sections” value (human colon tumor; listed as FITC-conjugated RPM) was “showed binding”. For the same substance, the “binding to adjacent normal colon tissue” value [1] was “no binding” and the “labeling of lung and liver cancer and uninvolved lung, liver, stomach” value [2] was “no labeling”.
